Assay [1] deals with T1, hLAIR-1 (Homo sapiens, UniProt Q6GTX8).
T1 sequence (Q6GTX8 22-287): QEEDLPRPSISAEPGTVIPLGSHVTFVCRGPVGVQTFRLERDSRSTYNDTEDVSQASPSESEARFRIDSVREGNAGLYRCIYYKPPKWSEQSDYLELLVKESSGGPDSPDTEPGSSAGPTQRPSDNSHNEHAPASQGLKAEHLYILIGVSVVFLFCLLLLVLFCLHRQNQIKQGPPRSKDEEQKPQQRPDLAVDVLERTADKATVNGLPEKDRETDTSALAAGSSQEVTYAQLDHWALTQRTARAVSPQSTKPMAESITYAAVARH
Description: FcεRI-induced degranulation assay, hLAIR-1 transfected RBL-2H3 cells. Format: cell-based. The arrangement: expressed in transfected cells. Conditions: plate-bound together with TNP-BSA 0.8 μg/ml. On the procedure:
96-well MAXIsorp flat-bottom plates (Nunc) were coated overnight at 4° C. with BSA, or TNP conjugated to BSA (0.8 μg/ml) and indicated amounts of synthetic trimeric peptides (100 μl/well, 2 mM acetic acid in PBS). Meanwhile, untransfected or hLAIR-1a transfected RBL-2H3 (23) cells were sensitized with IgE anti-TNP mAbs at 4° C. for 30 minutes and subsequently washed for three times in medium (AIM-V; Gibco-BRL). After washings of the plates, 5.0×10^5 cells in 70 μl medium were added to each well, and plates were incubated at 37° C. for 1 hour. Subsequently, cultures were transferred to PCR tubes, centrifuged and the supernatants were assayed for β-glucuronidase activity as described (23).

In assay [2] the target is T1, hLAIR-1. As to the kind of experiment: Inhibition of CD3 signaling in hLAIR-1a transfected 2B4 NFAT-GFP reporter cells. Format: cell-based. The arrangement: expressed in transfected cells; host or cells: Mouse 2B4 NFAT-GFP reporter T cell hybridoma. Conditions: for inhibition of CD3-induced activation of hLAIR-1 transfected reporter cells (in words): plate-bound peptide 10, 3.3, 1.1, 0.37 μg/ml; for inhibitory capacity at low peptide concentration (in words): 1.1 μg/ml; for inhibition of CD3-induced activation of hLAIR-1 transfected reporter cells: low peptide concentration 1.1 μg/ml. On the procedure: For detection of inhibition of mouse CD3 signaling: 2B4 T cell hybridoma cells stably transduced with an NFAT-GFP reporter and hLAIR-1a were generated. 1.25 μg/ml anti-mouse CD3 (PharMingen, San Diego, Calif.) was coated overnight at 4° C. in 96-well MAXIsorp flat-bottom plates (Nunc) together with an indicated amount of synthetic trimeric peptides in a total volume of 100 μl/well. The next day, plates were washed and 200 μl of 2.5×10^5 reporter cells/ml in medium were added to each well, and plates were incubated at 37° C. for 22 hrs and then analyzed for GFP expression by flow cytometry on a FACSCalibur (BD Biosciences). Typically, ˜90 percent of the reporters expressed GFP upon CD3 stimulation.

Another assay concerns the target T2, LAIR-2 fusion protein (Homo sapiens, UniProt Q6ISS4).
T2 construct: chimeric proteins of the extracellular domain of hLAIR-1 or LAIR-2 fused to the Fc region of human IgG1 were prepared; made in house
T2 sequence (Q6ISS4 22-152): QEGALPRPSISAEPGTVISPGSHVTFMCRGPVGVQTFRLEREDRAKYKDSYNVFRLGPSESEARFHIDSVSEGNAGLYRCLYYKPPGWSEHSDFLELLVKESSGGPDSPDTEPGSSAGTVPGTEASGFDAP
As to the kind of experiment: BIAcore binding of LAIR-2 fusion protein to immobilized trimeric peptides. Conditions: 5 μl/min, ~250 RU peptide. How it is done:
(§1) Surface plasmon resonance (BIAcore) binding studies were performed using a BIAcore2000 system (BIAcore AB, Uppsala, Sweden). Approximately 2000-3000 response units (RU) of acid-soluble human collagen type I or III (Sigma) were immobilized on a CM5 biosensor chip using the amine coupling kit as instructed by the supplier. Immobilized triple-helical peptides composed of GCO(GPO)10GCOG-NH2 ((GPO)10, also known as collagen-related peptide, CRP^6) and GCP(GPP)10GCPG-NH2 ((GPP)10) were described previously^6. Approximately 250 RU (GPP)10 or (GPO)10 peptide trimers were immobilized using a cysteine coupling kit according manufacturers instructions. Analysis was performed in buffer (125 mM NaCl, 2.5 mM CaCl2, 0.005% (v/v) Tween 20, and 25 mM Hepes, (pH 7.4)) at 25° C. at a flow rate of 20 μl/min for collagen I and III interaction-studies and 5 μl/min for the immobilized peptides. […] Increasing concentrations of hLAIR-1-IgG were injected and allowed to reach an equilibrium plateau for 10 minutes. The delay between injections was 13 min, during which time the biosensor chip was flushed with buffer. In case of peptide-binding studies, biosensor chips were regenerated by injection of 0.1 M H3PO4 (2 min, 5 μl/min).
The surface plasmon resonance binding studies were performed as described before(15). LAIR-2-IgG dimer concentration was calculated based on a theoretical mass of 82.5 kDa.
In general terms: In SPR one partner is held on a chip, and binding of the other changes the refractive index at the surface.

Assay [3] deals with parental 2B4 NFAT-GFP reporter T cell hybridoma cells. Description: Inhibition of CD3 signaling in parental (untransfected) 2B4 NFAT-GFP reporter cells. Format: cell-based, Mouse. The note with it: for inhibition of CD3-induced activation of parental reporter cells: high peptide concentrations.
The target in another assay is T3, hLAIR-1-IgG (Homo sapiens, UniProt Q6GTX8).
T3 construct: chimeric proteins of the extracellular domain of hLAIR-1 or LAIR-2 fused to the Fc region of human IgG1 were prepared; made in house
T3 sequence (Q6GTX8 22-165 limits assumed): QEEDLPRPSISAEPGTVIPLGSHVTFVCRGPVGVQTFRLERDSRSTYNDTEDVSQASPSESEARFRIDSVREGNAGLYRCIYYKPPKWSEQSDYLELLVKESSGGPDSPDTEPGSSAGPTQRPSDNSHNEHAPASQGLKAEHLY
As to the kind of experiment: BIAcore binding of hLAIR-1-IgG to immobilized triple-helical peptides. The note with it: hLAIR-1-IgG 780 nM, 5 μl/min, ~250 RU peptide. On the procedure: as §1

The target of another assay is T4, hLAIR-1-CD3ζ chimera (Homo sapiens, UniProt Q6GTX8).
T4 construct: a chimeric protein consisting of the extracellular domain of hLAIR-1 fused to the transmembrane and intracellular domain of CD3ζ; expressed in transfected cells; host or cells: Mouse 2B4 NFAT-GFP reporter T cell hybridoma, pMX puro retroviral vector
T4 sequence (Q6GTX8 22-165 limits assumed): T3 sequence (Q6GTX8 22-165 limits assumed)
As to the kind of experiment: 2B4 NFAT-GFP reporter cell assay, hLAIR-1-CD3ζ chimera. Conditions: for most potent hLAIR-1 activators in order of strength: order: III-30, II-56, II-30, III-38, II-42, III-51; for functional triggering of hLAIR-1-CD3ζ (GFP expression, in words): plate-bound ligand. Format: cell-based. On the procedure: For detection of LAIR-1 ligands: 2B4 T cell hybridoma cells stably transduced with an NFAT-GFP reporter and hLAIR-1-CD3ζ were analyzed as described (11).
2B4 T cell hybridoma cells were stably transduced with an NFAT-GFP reporter construct(40) and hLAIR-1-CD3ζ(15) and analyzed as described(15, 40).

“Also recorded” adds a separate entry of the source.

Consider GCP(GPP)10GCPG-NH2 [reference compound], for which the “inhibition of FcεRI-induced degranulation (β-glucuronidase release)” value (“inhibition … (β-glucuronidase release)” below) against hLAIR-1 [1] is given as “not”. The “inhibition of CD3-induced activation of hLAIR-1 transfected reporter cells (in words)” value at hLAIR-1 [2] is recorded as “did not inhibit”. Further, the “interaction of LAIR-2 with immobilized trimeric peptide” value at LAIR-2 fusion protein is listed as “not”. Besides, the “inhibition of CD3-induced activation of parental reporter cells (in words)” value in assay [3] is given as “did not inhibit”. Moreover, at hLAIR-1-IgG, the “binding of hLAIR-1-IgG to immobilized peptide” value is “did not”.
Take “GPC(GPP)5-GAOGLRGGAGPOGPEGGKGAAGPOGPO-(GPP)5GPC-NH2 [III-30]”: the “inhibition … (β-glucuronidase release)” value on hLAIR-1 [1] is “potent inhibitors”. Also, on hLAIR-1 [2], the “inhibitory capacity at low peptide concentration (in words)” value was “full inhibitory capacity” and the “inhibition of CD3-induced activation of hLAIR-1 transfected reporter cells (in words)” value was “efficiently inhibiting”. Further, the “inhibition of CD3-induced activation of parental reporter cells” value in assay [3] is approximately 30%. For the same substance, the “most potent hLAIR-1 activators in order of strength” value on hLAIR-1-CD3ζ chimera is recorded as “most potent hLAIR-1 activators”.
Turning to “GPC(GPP)5-GEGGPOGVAGPOGGSGPAGPOGPQGVK-(GPP)5GPC-NH2 [III-38]”, in the assay with hLAIR-1 [2], the “inhibition of CD3-induced activation of hLAIR-1 transfected reporter cells” value is given as approximately 60% and the “inhibition of CD3-induced activation of hLAIR-1 transfected reporter cells (in words)” value was “efficiently inhibiting”. Further, in the assay with hLAIR-1-CD3ζ chimera, the “most potent hLAIR-1 activators in order of strength” value is “most potent hLAIR-1 activators”.
As to “GPC(GPP)5-GMOGERGGLGSOGPKGDKGEOGGOGAD-(GPP)5GPC-NH2 [III-32]”, the “functional triggering of hLAIR-1-CD3ζ (GFP expression, in words)” value with hLAIR-1-CD3ζ chimera was “potent LAIR-1 binders and activators”.
Turning to “GPC(GPP)5-GPAGEOGREGSOGADGPOGRDGAAGVK-(GPP)5GPC-NH2 [II-47]”, the “inhibition of CD3-induced activation of hLAIR-1 transfected reporter cells (in words)” value in the assay with hLAIR-1 [2] is “did not induce inhibition”.
Regarding “GPC(GPP)5-GPAGPAGAOGPAGSRGAOGPQGPRGDK-(GPP)5GPC-NH2 [III-51]”, in the assay with hLAIR-1-CD3ζ chimera, the “most potent hLAIR-1 activators in order of strength” value is reported as “most potent hLAIR-1 activators”; the “functional triggering of hLAIR-1-CD3ζ (GFP expression, in words)” value is “potent LAIR-1 binders and activators”.
Consider “GPC(GPP)5-GPRGRSGETGPAGPOGNOGPOGPOGPO-(GPP)5GPC-NH2 [II-56]”, for which the “inhibition … (β-glucuronidase release)” value against hLAIR-1 [1] is reported as “potent inhibitors”. At hLAIR-1 [2], the “inhibitory capacity at low peptide concentration (in words)” value is “full inhibitory capacity; also recorded: full inhibitory potential” and the “inhibition of CD3-induced activation of hLAIR-1 transfected reporter cells (in words)” value is reported as “efficiently inhibiting”. The “inhibition of CD3-induced activation of parental reporter cells” value in assay [3] is listed as approximately 30%. Also, the “most potent hLAIR-1 activators in order of strength” value on hLAIR-1-CD3ζ chimera is given as “most potent hLAIR-1 activators”.
For the substance “GPC(GPP)5-GRAGEOGLQGPAGPOGEKGEOGDDGPS-(GPP)5GPC-NH2 [II-42]”, in the assay with hLAIR-1-CD3ζ chimera, the “most potent hLAIR-1 activators in order of strength” value is “most potent hLAIR-1 activators”.
In the case of “GPC(GPP)5-GTOGTDGPKGASGPAGPOGAQGPOGLQ-(GPP)5GPC-NH2 [II-30]”, in the assay with hLAIR-1 [2], the “inhibition of CD3-induced activation of hLAIR-1 transfected reporter cells” value is given as approximately 60% and the “inhibition of CD3-induced activation of hLAIR-1 transfected reporter cells (in words)” value was “efficiently inhibiting”. For the same substance, the “most potent hLAIR-1 activators in order of strength” value in the assay with hLAIR-1-CD3ζ chimera is “most potent hLAIR-1 activators”.

For the origin of these results see patent US20090304686A1, “INTERFERING IN ACTIVATION OF AN IMMUNE CELL BY INFLUENCING INTERACTION OF LAIR AND COLLAGEN” (UNIVERSOTAIR MEDISCH CENTRUM UTRECHT, priority 2006, published 2009).
